Tests used:
[1] = Stability in HBSS buffer of the Caco-2 experiments; format: in vitro ADME; conditions: HBSS buffer (2% DMSO final concentration) at 37° C. for 60 and 120 minutes
Experimental: Stability of both compound I and compound II was assessed during the test. […] An aliquot of each solution was sampled at time zero (t=0) to assess the starting concentrations of the compounds. The solutions were incubated at 37° C. for the duration of the transport experiment. An aliquot of each solution was sampled at the end of experiment (t=120) to assess the final concentrations of compound I and compound II. Samples were analyzed by LC-MS.

[2] = system: proinflammatory proteins (COX-2, p-cPLA2, p-p65, p-p38, p-ERK); test: Western blot of proinflammatory proteins in human myometrial and amnion biopsies
Experimental: FIG. 79a is a Western blot showing the effects of oxytocin, nolasiban, and a combination thereof on the expression of phosphorylated p65 (p-p65), phosphorylated p38 (p-p38), and phosphorylated extracellular signal-regulated kinase (p-ERK) in N=6 term, pre-laboring myometrial biopsies collected from human female subjects undergoing caesarean section delivery. Samples were either unstimulated (“NS”), stimulated with oxytocin (“OT”), treated with nolasiban at a concentration of 1 μM, or treated with both oxytocin and nolasiban at a concentration of 1 μM for the indicated periods of time. A blot against β-actin was performed as a control. FIG. 79b is a Western blot showing the effects of oxytocin and/or varying concentration of compound II, optionally in combination with nolasiban, on the expression of p-p65, p-p38, and p-ERK in N=6 term, pre-laboring myometrial biopsies collected from human female subjects undergoing caesarean section delivery. Samples were either unstimulated (“NS”), stimulated with oxytocin (“OT”), treated with compound II at a concentration of 3 μM, or treated with both oxytocin and compound II at varying concentrations of compound II, both in the presence and absence of nolasiban at a concentration of 1 μM for the indicated periods of time. A blot against β-actin was performed as a control. […]

[3] = system: Caco-2 cell monolayer; test: Bidirectional permeability across Caco-2 cell monolayers; format: in vitro ADME, human
Experimental: (§1) Compound I was dissolved in HBSS buffer (1% DMSO final concentration) at the concentrations of 1.5, 3 and 6 μM. Each concentration/sampling time was run in duplicate well. The test was performed in a gradient pH: the apical compartment (mucosal) was at pH 6.5, the basolateral compartment (serosal) was at pH 7.4.
(§2) Apical to basolateral (A→B, mucosal to serosal) transport: 200 μL of each concentration of compound I was added to the apical compartment and 400 μL of HBSS was added to the basolateral compartment. The plates were incubated at 37° C. An aliquot of the basolateral compartment was sampled after 60 and 120 min (t=60 and t=120). An aliquot of the apical compartment was sampled at the starting time (t=0) and after 120 min. (t=120).
(§3) Basolateral to apical (B→A, serosal to mucosal) transport: 400 μL of each concentration of compound I was added to the basolateral compartment and 200 μL of HBSS was added to the apical compartment. The plates were incubated at 37° C. An aliquot of the apical compartment was sampled after 60 and 120 min (t=60 and t=120). An aliquot of the basolateral compartment was sampled at the starting time (t=0) and after 120 min. (t=120). All samples were analyzed by LC/MS monitoring both compound I and the appearance of compound II.
as §1, with “II” for “I”
as §2, with “II” for “I”
as §3, with “of compound II was added” for “of compound I was added”, “LC/MS monitoring compound II.” for “LC/MS monitoring both compound I and the appearance of compound II.”

[4] = system: panel of 50 receptors, channels and enzymes binding sites; conditions: 1 μM
[5] = target: human FP (Homo sapiens, UniProt P43088); test: IP3 synthesis in FP-transfected HEK293-EBNA cells; conditions: tested up to 10 μM
Chain of human FP (P43088 whole entry): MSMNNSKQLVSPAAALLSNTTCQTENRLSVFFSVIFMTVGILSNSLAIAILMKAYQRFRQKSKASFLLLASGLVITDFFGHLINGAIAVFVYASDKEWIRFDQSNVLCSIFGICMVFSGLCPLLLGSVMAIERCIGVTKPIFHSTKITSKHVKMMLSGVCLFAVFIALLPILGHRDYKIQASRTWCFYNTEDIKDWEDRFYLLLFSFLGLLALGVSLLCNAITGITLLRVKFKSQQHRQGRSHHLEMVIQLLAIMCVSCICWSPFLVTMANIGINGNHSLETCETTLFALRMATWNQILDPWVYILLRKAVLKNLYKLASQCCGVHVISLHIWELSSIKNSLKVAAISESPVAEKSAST

O=C(N[C@@H](CCO)c1ccc(F)cc1)[C@@H]1SCCN1S(=O)(=O)c1ccc(-c2ccccc2)cc1 [Compound II, 3-([1,1′-biphenyl]-4-ylsulfonyl)-N-[1-(4-fluorophenyl)-3-hydroxypropyl]-1,3-thiazolidine-2-carboxamide]
Stability in HBSS buffer [1]: stable | Expression of proinflammatory proteins [2]: capable of reducing the expression of various proinflammatory proteins | Efflux [3]: No efflux was detected | Passive passage through the Caco-2 monolayer [3]: good passive passage | Passage apical to basolateral ([3]; A→B): good percentage of passage | Permeability from basolateral to apical compartment ([3]; B→A): low rate of permeability | Selectivity in panel of 50 receptors, channels and enzymes [4]: high selectivity for FP | Agonist activity (IP3 synthesis when added alone) [5]: did not induce any synthesis of IP3

From patent US11524003B2, “Alpha-amino esters of hydroxypropylthiazolidine carboxamide derivative and salt form, crystal polymorph thereof” (ObsEva S.A., priority 2016, dated 2022)
